In brackets after ≈: the same amount, converted by molar mass.
Assays:
[1] = test system: Ent. faecium van R1; assay: MIC, agar-dilution method in Mueller-Hinton agar; type: cell-based; settings: Enterococcus faecium, VANR1
Description: (§1) Compound M901809 and its acid hydrolysis product M901809H are active against gram-positive bacteria.
(§2) c = Teicoplanin resistant
d = Vancomycin resistant

[2] = Solubility; type: physicochemical
[3] = test system: staphylococci; assay: treatment of experimental animals infected with staphylococci; type: in vivo
[4] = test system: gram-positive bacteria; assay: activity against gram-positive bacteria; type: cell-based
Description: as §1

[5] = test system: Staph. epidermidis 825; assay: MIC, agar-dilution method in Mueller-Hinton agar; type: cell-based; settings: Staphylococcus epidermidis, Teicoplanin resistant, methicillin resistant
Description: as §1, §2
(§3) Strains 5 to 26 are methicillin resistant staphylococci.

[6] = test system: Staph. epidermidis 823; assay: MIC, agar-dilution method in Mueller-Hinton agar; type: cell-based; settings: Staphylococcus epidermidis, Teicoplanin resistant, methicillin resistant
Description: as §1, §2, §3

[7] = test system: Staph. aureus 20424; assay: MIC, agar-dilution method in Mueller-Hinton agar; type: cell-based; settings: Staphylococcus aureus, Erythromycin resistant
Description: as §1
a = Erythromycin resistant

[8] = test system: Ent. faecalis Eder; assay: MIC, agar-dilution method in Mueller-Hinton agar; type: cell-based; settings: Enterococcus faecalis
Description: as §1

[9] = test system: Ent. faecalis 3903; assay: MIC, agar-dilution method in Mueller-Hinton agar; type: cell-based; settings: Enterococcus faecalis
Description: as §1

[10] = test system: Ent. faecalis D 65; assay: MIC, agar-dilution method in Mueller-Hinton agar; type: cell-based; settings: Enterococcus faecalis, D65
Description: as §1

[11] = test system: Staph. aureus 209 P; assay: MIC, agar-dilution method in Mueller-Hinton agar; type: cell-based; settings: Staphylococcus aureus
Description: as §1

[12] = test system: Ent. faecalis 21777; assay: MIC, agar-dilution method in Mueller-Hinton agar; type: cell-based; settings: Enterococcus faecalis
Description: as §1

[13] = test system: Staph. aureus 3066; assay: MIC, agar-dilution method in Mueller-Hinton agar; type: cell-based; settings: Staphylococcus aureus
Description: as §1

[14] = test system: Ent. faecalis 26777; assay: MIC, agar-dilution method in Mueller-Hinton agar; type: cell-based; settings: Enterococcus faecalis
Description: as §1

[15] = test system: Ent. faecalis 734; assay: MIC, agar-dilution method in Mueller-Hinton agar; type: cell-based; settings: Enterococcus faecalis
Description: as §1

[16] = test system: Ent. faecalis 782; assay: MIC, agar-dilution method in Mueller-Hinton agar; type: cell-based; settings: Enterococcus faecalis
Description: as §1

[17] = test system: Ent. faecalis UD8b; assay: MIC, agar-dilution method in Mueller-Hinton agar; type: cell-based; settings: Enterococcus faecalis
Description: as §1

[18] = test system: Staph. aureus 20240; assay: MIC, agar-dilution method in Mueller-Hinton agar; type: cell-based; settings: Staphylococcus aureus, lactam resistant
Description: as §1

[19] = test system: Staph. aureus E 88; assay: MIC, agar-dilution method in Mueller-Hinton agar; type: cell-based; settings: Staphylococcus aureus, E88, methicillin resistant
Description: as §1, §3

[20] = test system: Staph. aureus C 31153; assay: MIC, agar-dilution method in Mueller-Hinton agar; type: cell-based; settings: Staphylococcus aureus, C31153, methicillin resistant
Description: as §1, §3

[21] = test system: Staph. aureus 725; assay: MIC, agar-dilution method in Mueller-Hinton agar; type: cell-based; settings: Staphylococcus aureus, methicillin resistant
Description: as §1, §3

[22] = test system: Staph. aureus 694; assay: MIC, agar-dilution method in Mueller-Hinton agar; type: cell-based; settings: Staphylococcus aureus, methicillin resistant
Description: as §1, §3

[23] = test system: Staph. aureus 690; assay: MIC, agar-dilution method in Mueller-Hinton agar; type: cell-based; settings: Staphylococcus aureus, methicillin resistant
Description: as §1, §3

[24] = test system: Staph. aureus 722; assay: MIC, agar-dilution method in Mueller-Hinton agar; type: cell-based; settings: Staphylococcus aureus, methicillin resistant
Description: as §1, §3

[25] = test system: Staph. aureus 011UC5; assay: MIC, agar-dilution method in Mueller-Hinton agar; type: cell-based; settings: Staphylococcus aureus, methicillin resistant
Description: as §1, §3

[26] = test system: Staph. aureus 710; assay: MIC, agar-dilution method in Mueller-Hinton agar; type: cell-based; settings: Staphylococcus aureus, methicillin resistant
Description: as §1, §3

[27] = test system: Staph. aureus 706; assay: MIC, agar-dilution method in Mueller-Hinton agar; type: cell-based; settings: Staphylococcus aureus, methicillin resistant
Description: as §1, §3

[28] = test system: Staph. aureus E 121; assay: MIC, agar-dilution method in Mueller-Hinton agar; type: cell-based; settings: Staphylococcus aureus, E121, methicillin resistant
Description: as §1, §3

[29] = test system: Staph. epidermidis 607; assay: MIC, agar-dilution method in Mueller-Hinton agar; type: cell-based; settings: Staphylococcus epidermidis, methicillin resistant
Description: as §1, §3

[30] = test system: Staph. epidermidis 109; assay: MIC, agar-dilution method in Mueller-Hinton agar; type: cell-based; settings: Staphylococcus epidermidis, methicillin resistant
Description: as §1, §3

[31] = test system: Staph. aureus 712; assay: MIC, agar-dilution method in Mueller-Hinton agar; type: cell-based; settings: Staphylococcus aureus, methicillin resistant
Description: as §1, §3

[32] = test system: Staph. haemolyticus 809; assay: MIC, agar-dilution method in Mueller-Hinton agar; type: cell-based; settings: Staphylococcus haemolyticus
Description: as §1, §3

[33] = test system: Staph. epidermidis 291; assay: MIC, agar-dilution method in Mueller-Hinton agar; type: cell-based; settings: Staphylococcus epidermidis, methicillin resistant
Description: as §1, §3

[34] = test system: Staph. epidermidis 178; assay: MIC, agar-dilution method in Mueller-Hinton agar; type: cell-based; settings: Staphylococcus epidermidis, methicillin resistant
Description: as §1, §3

[35] = test system: Staph. aureus Co. 1; assay: MIC, agar-dilution method in Mueller-Hinton agar; type: cell-based; settings: Staphylococcus aureus, methicillin resistant
Description: as §1, §3

[36] = test system: Staph. haemolyticus 712; assay: MIC, agar-dilution method in Mueller-Hinton agar; type: cell-based; settings: Staphylococcus haemolyticus
Description: as §1, §3

[37] = test system: Staph. epidermidis 2 Tub; assay: MIC, agar-dilution method in Mueller-Hinton agar; type: cell-based; settings: Staphylococcus epidermidis, methicillin resistant
Description: as §1, §3

[38] = test system: Staph. aureus 789; assay: MIC, agar-dilution method in Mueller-Hinton agar; type: cell-based; settings: Staphylococcus aureus, methicillin resistant
Description: as §1, §3

[39] = test system: streptococci; assay: treatment of experimental animals infected with streptococci; type: in vivo

CCCC1Cc2cc3c(c(O)c2C(=O)O1)-c1c(c(OC)c2oc4c(OC5CC(O)C(OC6CC(O)C(OC7CC(OC)C(O)C(C)O7)C(C)O6)C(C)O5)ccc(O)c4c(=O)c2c1O)C(O)C3O (centres unmarked) [M901809]
MIC [1]: 1.6 µg/mL (≈ 1.7 µM) | Solubility ([2]; in CH2Cl2): Very soluble | Solubility ([2]; in CH3CN): Poor to moderate | Solubility ([2]; in CHCl3): Very soluble | Solubility ([2]; in DMSO): Very soluble | Solubility ([2]; in H2O): Insoluble | Solubility ([2]; in MeOH): Poor to moderate | Solubility ([2]; in ethyl acetate): Poor to moderate | Solubility ([2]; in hexane): Insoluble | Solubility ([2]; in petroleum ether (40-60° C.)): Insoluble | activity in treatment of infected experimental animals [3]: active | activity against gram-positive bacteria [4]: active | MIC [5]: 0.8 µg/mL (≈ 0.85 µM) | MIC [6]: 0.4 µg/mL (≈ 0.425 µM) | MIC [7]: 0.2 µg/mL (≈ 0.213 µM) | MIC [8]: 0.4 µg/mL (≈ 0.425 µM) | MIC [9]: 0.4 µg/mL (≈ 0.425 µM) | MIC [10]: 1.6 µg/mL (≈ 1.7 µM) | MIC [11]: 0.1 µg/mL (≈ 0.106 µM) | MIC [12]: 0.4 µg/mL (≈ 0.425 µM) | MIC [13]: 0.2 µg/mL (≈ 0.213 µM) | MIC [14]: 0.4 µg/mL (≈ 0.425 µM) | MIC [15]: 0.4 µg/mL (≈ 0.425 µM) | MIC [16]: 0.4 µg/mL (≈ 0.425 µM) | MIC [17]: 0.8 µg/mL (≈ 0.85 µM) | MIC [18]: 0.2 µg/mL (≈ 0.213 µM) | MIC [19]: 0.2 µg/mL (≈ 0.213 µM) | MIC [20]: 0.1 µg/mL (≈ 0.106 µM) | MIC [21]: 0.1 µg/mL (≈ 0.106 µM) | MIC [22]: 0.2 µg/mL (≈ 0.213 µM) | MIC [23]: 0.2 µg/mL (≈ 0.213 µM) | MIC [24]: 0.2 µg/mL (≈ 0.213 µM) | MIC [25]: 0.1 µg/mL (≈ 0.106 µM) | MIC [26]: 0.2 µg/mL (≈ 0.213 µM) | MIC [27]: 0.2 µg/mL (≈ 0.213 µM) | MIC [28]: 0.2 µg/mL (≈ 0.213 µM) | MIC [29]: 0.4 µg/mL (≈ 0.425 µM) | MIC [30]: 0.4 µg/mL (≈ 0.425 µM) | MIC [31]: 0.2 µg/mL (≈ 0.213 µM) | MIC [32]: 0.4 µg/mL (≈ 0.425 µM) | MIC [33]: 0.2 µg/mL (≈ 0.213 µM) | MIC [34]: 0.2 µg/mL (≈ 0.213 µM) | MIC [35]: 0.1 µg/mL (≈ 0.106 µM) | MIC [36]: 0.2 µg/mL (≈ 0.213 µM) | MIC [37]: 0.2 µg/mL (≈ 0.213 µM) | MIC [38]: 0.1 µg/mL (≈ 0.106 µM) | activity in treatment of infected experimental animals [39]: active
